From patent US20050058658A1, “Compositions and methods for immunotherapy of human immunodeficiency virus (HIV)” (priority 2003, published 2005)
Where no end group is shown, it is not given here.

Legend:
[1] = test system: freshly isolated dendritic cells (CD11c+ splenocytes); test: Dendritic cell (DC) assay: IL-12 release; assay type: cell-based, BALB/c mice; conditions: for DC/mIL12 Release: tested for synergism and inhibition
From the text: In a preferred embodiment, dendritic cell (DC) assay is used to follow interleukin-12 (IL-12) release from freshly isolated dendritic cells as an index of DC activation (see section 13). […] Briefly, by way of example but not limitation, a DC assay can be carried out as follows: freshly isolated dendritic cells (CD11c^+ splenocytes, e.g., isolated from the spleens of BALB/c mice within ten hours of assaying the activity) are suspended at a density of 0.5×10^6 cells per mL in cytokine supplemented culture media (GM-CSF, 1.0 ng/ml; IL-4, 1.0 ng/ml; IFNg, 3 ng/ml; anti mouse CD40; 0.5 mg/ml). […] Mouse IL-12 release from the dendritic cells (CD11c^+ splenocytes) is then measured using ELISA.
DCs were isolated from the spleens of male BALB/c mice 8-12 weeks of age (Harlan Bioproducts for Science, Indianapolis, Ind.), using the magnetic assisted cell separation (MACS) system purchased from Miltenyi Biotech. In summary: Spleens were aseptically removed from mice and placed into a petri dish containing 5 mL holding media (DMEM/F12 supplemented with 10% FCS and antibiotics). Each spleen was then injected with ˜0.5 mls collagenase D solution (1 mg/mL in 10 mM Hepes-NaOH, pH 7.4, 150 mM NaCl, 5 mM MgCl2, 1.8 mM CaCl2), placed into 5-10 mL collagenase D, cut into 5-6 pieces and incubated at 37° C. for 45-60 min. Collagenase-digested spleens were then processed with glass slides and passed through a 70 μm nylon mesh cell strainer. After the strainer was flushed with 40 mL culture media, cells were centrifuged (8 min @ 200×G), suspended in 1 mL PBS and subjected to red blood cell lysis by incubating the cell suspension for 5 min at room temperature in 10 mL lysis buffer (155 mM NH4Cl, 10 mM KHCO3, 0.1 mM EDTA), followed by dilution in PBS to 50 mL and centrifugation (8 min @ 200×g). The splenocytes were then suspended in 10 mL MACS buffer (PBS pH 7.2, supplemented with 2 mM EDTA and 0.5% BSA), passed through a 40 μm nylon mesh cell strainer which was flushed with 40 mL MACS buffer. A preliminary cell count was taken at this time, prior to centrifugation (8 min @ 200×G). The splenocytes were suspended at a density of 10^8 cells per 400 μL MACS buffer. Paramagnetic MicroBeads coated with anti-CD11c antibody were mixed with the splenocyte suspension (100 μL per 10^8 cells), incubated at +4° C. for 15 min, washed, suspended in 1.0 mL MACS buffer and passed through a MS+separation column placed within a strong magnetic field. CD11c^+ cells were retained in the column whereas CD11c^− cells were washed off the column as the flow-through cell fraction. CD11c^+ cells were then collected by removing the column out of the magnetic field and flushing the column twice with 1 mL of MACS buffer. CD11c^+ cells were washed once with culture media and suspended at a density of 0.5×10^6 cells per mL in cytokine supplemented culture media {DMEM/F12 supplemented with 10% FCS and gentamicin containing mouse GM-CSF (1 ng/mL), mouse IL-4 (1 ng/mL), mouse IFNγ (3 ng/mL) and anti mouse CD40 (0.5 mg/mL)}.
Mouse IL12 release from CD11c^+ splenocytes was measured using ELISA. Briefly, CD11c+ cell culture supernatants were sampled following an overnight incubation (usually 15-18 hrs). Media samples (100 μL) were added to ELISA plates coated with anti mouse IL12 (p70) capture antibody (R&D #MAB419; 250 ng in 100 μL per well) and incubated either at 37° C. or room temperature for 2 hrs. The ELISA plates were washed extensively with wash buffer after which 100 μL per well of detection antibody/detection reagent (biotinylated anti-mouse IL12; R&D #BAF419 at 50 ng/mL and streptavidin-HRP) was added. The ELISA plates were again incubated for 2 hours, washed and exposed to […] substrate solution (Pierce #34021) for 20 min. The substrate reaction was stopped by adding 100 μL/well 2M H2SO4. ELISA plates were read at 450 nm (corrected at 540 nm) and mIL12(p70) levels were calculated using an intra-ELISA standard curve (range: 2000-31.25 pg/mL).

Mouse sarcoma 180 cells = assay type: cell-based; conditions: for NK-CMC Activity: wide range of concentrations, in the presence and absence of IL-2 (125 U/ml)
Protocol: In one embodiment, a NK cell assay is used to assess ARP-induced cytotoxic activity of NK-like cells. Briefly, by way of example but not limitation, a NK cell assay can be carried out as follows: large granular lymphocytes (LGLs) are co-cultured with tumor cells at various ratios (effector to target ratio) for four days at 37° C., 5% CO2. […] The culture is terminated at the end of day 4 and vitally stained using a MTT cell viability quantification assay (see Mossman, T. J. Immunol. Methods 1983, 65:55; and Sigma Chemical MTT (M5655) product application note). Culture media is aspirated and the remaining cells are washed and replaced with DMEM/F12 plus FCS, containing MTT. The cells are further incubated for 4-5 hours at 37° C. Absorbance is measured with the aid of a plate reader. Decreased absorbance indicated a decrease in the number of viable cells per well (i.e., cytotoxicity). Absorbance is measured again after the MTT is solubilized by replacement of the medium with 2-propanol containing HCl, which gives a uniform color throughout the well. NK-inducing activity is calculated relative to negative (PBS/BSA) and positive (internal standard) controls.
Spleens (10-15 per experiment) were aseptically removed from male Balb/C mice 6-10 weeks of age. Splenocytes were “squeezed” out of spleens using 2 sterile glass microscope slides. Cells were collected in approximately 10 ml of DMEM/F12 containing 10% fetal calf serum (FCS) and gentamicin (50 μg/ml). Single cell suspensions were generated by passing collected cells through a 70 μm nylon mesh screen. After washing the cell pellet once with PBS (centrifuged at 675×g for 5 min), red blood cells were lysed by brief hypotonic shock (i.e. exposure to sterile distilled, deionized water, followed immediately with appropriate volumes of 10×PBS to return to isotonicity). Remaining cells were centrifuged and resuspended in DMEM/F12+10% FCS and transferred to 75 cm^2 flasks each containing 25 mls DMEM/F12+10% FCS (cells from 5 spleens per flask). The cells were incubated for 60 min. at 37° C. to selectively remove readily adherent cells (mainly fibroblasts and macrophages). After the incubation, the flasks were gently shaken and the non-adherent cells were removed, pelleted by centrifugation, and resuspended in DMEM/F12 (no supplements) (1.0 mL/10^8 cells). A 1.0 mL volume of these cell suspensions were carefully layered onto a 70%/60%/40% (2 mL/4 mL/4 mL) Percoll™ gradients in 15 ml centrifuge tubes and centrifuged for 30 min at 675×G. The cells which sediment at the 40/60 interface represent primarily large granular lymphocytes (LGLs), enriched with NK cells. These cells were carefully removed with a pasteur pipet, centrifuged, washed once with PBS and resuspended in approximately 5 mL DMEM/F12 supplemented with gentamicin (50 μg/mL) and 10% fetal calf serum. Cell counts and appropriate dilutions of LGL cells were made with these cells, as described below. For convenience this LGL cell preparation is interchangeably referred to as NK cells.
Mouse sarcoma 180 cells were seeded into 96 well plates at a density of 5×10^3 cells per well in 100 μl DMEM/F12, supplemented with 10% FCS and gentamicin (50 μg/mL). […] NK cells were added in 100 μL of supplemented DMEM/F12 at designated densities: 0 NK cells/well; 5×10^4 NK cells/well (1:10 target/effector ratio); 1.25×10^5 NK cells/well (1:25 target/effector ratio); 2.5×10^5 NK cells/well (1:50 target/effector ratio); and, 5×10^5 NK cells/well (1:100 target/effector ratio). (Note: routinely, only the 1:50 and 1:100 ratios were used for screening purposes. IL2 was added as a media supplement with final concentration of 125 U/mL.). Co-cultures were incubated for 4 days at 37° C., 5% CO2, and terminated and vitally stained using a MTT cell viability quantification assay (see Mossman, T. J. Immunol. Methods 65:55 (1983); and Sigma Chemical MTT (M5655) product application note). […]

[Ca+2].[Cl-].[Cl-] [CaCl2]
Inhibition of DC-activity induced by crude ARP preparations [1]: did not

[Cl][Cu][Cl] [CuCl2]
Inhibition of DC-activity induced by crude ARP preparations [1]: inhibition of activity in mM-μM concentration range

[Cl-].[Cl-].[Mg+2] [MgCl2]
Inhibition of DC-activity induced by crude ARP preparations [1]: did not

[Cl-].[Cl-].[Zn+2] [ZnCl2]
Inhibition of DC-activity induced by crude ARP preparations [1]: inhibition of activity in mM-μM concentration range

Cecropin A: defensin / anti-microbial peptide (KWKLFKKIEKVGQNIRDGIIKAGPAVAVVGQATQIAK; UniProt P01507 27-63, looked up)
NK-CMC Activity (Mouse sarcoma 180 cells): −

Cecropin B: defensin / anti-microbial peptide (KWKVFKKIEKMGRNIRNGIVKAGPAIAVLGEAKAL; ends and bridges not checked; UniProt P01508 27-61, looked up)
NK-CMC Activity (Mouse sarcoma 180 cells): −

Cecropin P1
NK-CMC Activity (Mouse sarcoma 180 cells): −

FGFbasic: growth factor
NK-CMC Activity (Mouse sarcoma 180 cells): −
DC/mIL12 Release [1]: −

IFNα
NK-CMC Activity (Mouse sarcoma 180 cells): −

IFNγ: Interferon gamma
NK-inducing activity (Mouse sarcoma 180 cells): slight increase in NK-CMC
maximal response, cytotoxicity (Mouse sarcoma 180 cells): ^6Weakly activates NK cells in the presence of IL-2 (maximal response < 50% cytotoxicity).
Enhancement of NK-CMC compared to BEX (Mouse sarcoma 180 cells; same conditions as BEX): relatively weak enhancers
DC/mIL12 Release [1]: −

IL-5: interleukin
NK-CMC Activity (Mouse sarcoma 180 cells): −
DC/mIL12 Release [1]: −

IL-15: interleukin
NK-CMC Activity (Mouse sarcoma 180 cells): −

JE/MCP-1: chemokine
NK-CMC Activity (Mouse sarcoma 180 cells): −

Magainin I
NK-CMC Activity (Mouse sarcoma 180 cells): −

Magainin II
NK-CMC Activity (Mouse sarcoma 180 cells): −

TGFα: growth factor
NK-CMC Activity (Mouse sarcoma 180 cells): −

B1: IL-18: interleukin (protein, UniProt P70380 36-192, looked up)
Interleukin-18: NFGRLHCTTAVIRNINDQVLFVDKRQPVFEDMTDIDQSASEPQTRLIIYMYKDSEVRGLAVTLSVKDSKMSTLSCKNKIISFEEMDPPENIDDIQSDLIFFQKRVPGHNKMEFESSLYEGHFLACQKEDDAFKLILKKKDENGDKSVMFTLTNLHQS
DC/mIL12 Release [1]: −

B2: IL-12: Interleukin 12 (protein, UniProt P43431 23-215; P43432 23-335, looked up)
Interleukin-12 subunit alpha: RVIPVSGPARCLSQSRNLLKTTDDMVKTAREKLKHYSCTAEDIDHEDITRDQTSTLKTCLPLELHKNESCLATRETSSTTRGSCLPPQKTSLMMTLCLGSIYEDLKMYQTEFQAINAALQNHNHQQIILDKGMLVAIDELMQSLNHNGETLRQKPPVGEADPYRVKMKLCILLHAFSTRVVTINRVMGYLSSA
Interleukin-12 subunit beta: MWELEKDVYVVEVDWTPDAPGETVNLTCDTPEEDDITWTSDQRHGVIGSGKTLTITVKEFLDAGQYTCHKGGETLSHSHLLLHKKENGIWSTEILKNFKNKTFLKCEAPNYSGRFTCSWLVQRNMDLKFNIKSSSSSPDSRAVTCGMASLSAEKVTLDQRDYEKYSVSCQEDVTCPTAEETLPIELALEARQQNKYENYSTSFFIRDIIKPDPPKNLQMKPLKNSQVEVSWEYPDSWSTPHSYFSLKFFVRIQRKKEKMKETEEGCNQKGAFLVEKTSTEVQCKGGNVCVQAQDRYYNSSCSKWACVPCRVRS
Effect on NK-CMC (footnotes of Table 16) (Mouse sarcoma 180 cells): synergistically increases NK-CMC at low concentrations of IL-2

B3: MIP-1α: chemokine (protein, UniProt P10855 24-92, looked up)
C-C motif chemokine 3: APYGADTPTACCFSYSRKIPRQFIVDYFETSSLCSQPGVIFLTKRNRQICADSKETWVQEYITDLELNA
NK-CMC Activity (Mouse sarcoma 180 cells): −

B4: IL-7: interleukin (protein, UniProt P10168 26-154, looked up)
Interleukin-7: ECHIKDKEGKAYESVLMISIDELDKMTGTDSNCPNNEPNFFRKHVCDDTKEAAFLNRAARKLKQFLKMNISEEFNVHLLTVSQGTQTLVNCTSKEEKNVKEQKKNDACFLKRLLREIKTCWNKILKGSI
NK-CMC Activity (Mouse sarcoma 180 cells): −

B5: KC: chemokine (protein, UniProt P12850 25-96, looked up)
Growth-regulated alpha protein: APIANELRCQCLQTMAGIHLKNIQSLKVLPSGPHCTQTEVIATLKNGREACLDPEAPLVQKIVQKMLKGVPK
NK-CMC Activity (Mouse sarcoma 180 cells): −

B6: IL-4: interleukin (protein, UniProt P07750 21-140, looked up)
Interleukin-4: HIHGCDKNHLREIIGILNEVTGEGTPCTEMDVPNVLTATKNTTESELVCRASKVLRIFYLKHGKTPCLKKNSSVLMELQRLFRAFRCLDSSISCTMNESKSTSLKDFLESLKSIMQMDYS
NK-CMC Activity (Mouse sarcoma 180 cells): −

B7: IL-11: interleukin (protein, UniProt P20809 22-199, looked up)
Interleukin-11: PGPPPGPPRVSPDPRAELDSTVLLTRSLLADTRQLAAQLRDKFPADGDHNLDSLPTLAMSAGALGALQLPGVLTRLRADLLSYLRHVQWLRRAGGSSLKTLEPELGTLQARLDRLLRRLQLLMSRLALPQPPPDPPAPPLAPPSSAWGGIRAAHAILGGLHLTLDWAVRGLLLLKTRL
NK-CMC Activity (Mouse sarcoma 180 cells): −
